One data set concerns immunized normal cells. The following applies: in vitro; optimum enhancement at lower dosage (10 μg) on first day; cited from earlier work.
Another data set concerns neutrophils. The following applies: cited from earlier work.
The subject of data set [1] is CD8 (cytotoxic/suppressor) and CD4 (helper/inducer) lymphocytes. The conditions noted are these: 800 mg daily for 7 days; cited from earlier work.
The next data set deals with H2 receptor. The conditions noted are these: via H2 receptor; cited from earlier work.
A further data set relates to lymphocyte. The following applies: cited from earlier work.
For data set [2] the following is noted: topical application to the oral cavity; cited from earlier work.
The subject of data set [3] is P. gingivalis-induced periodontitis. The following applies: three doses; p<0.05.
For data set [4] the following is noted: AIDS patients; cited from earlier work.
Data set [5] deals with P. gingivalis-induced periodontitis. The following applies: for overall effect on tissue destruction and inflammatory cell infiltrate: local administration, three dosages; for linear distance from the epithelium to the alveolar crest border, ratio ligated/non-ligated sites (FIG. 6A): tip, middle and base of the crest. The protocol: In total, 21 New Zealand White rabbits (male, 3.5-4.0 kg each) were used in the experiments presented herein. Three different doses of Cimetidine (0.1, 1.0 and 10 μg/mL) have been prepared in paucilamellar liposomes (NOVASOME®). The animals were distributed as follows: Group A: Ligature alone (2 rabbits); Group B: Ligature+P. gingivalis (4 rabbits); Group C: Ligature+P. gingivalis+liposome (NOVASOME®) alone; Group D: Ligature+P. gingivalis+NOVASOME® preparation comprising 0.1 μg/mL of Cimetidine (4 rabbits); Group E: Ligature+P. gingivalis+NOVASOME® preparation comprising 1.0 μg/mL of Cimetidine (4 rabbits); and Group F: Ligature+P. gingivalis+NOVASOME® preparation comprising 10 μg/mL of Cimetidine (4 rabbits). All animals were purchased from Pine Acre Farms (Berthoud, Co.). The weight of the animals was strictly controlled and all animals weighed between 3.5-4.0 kg at the time of the initial experimentation. The animals were kept in individual cages, received water ad libitum, and were fed with specialized food (chow) for at least 5 days for acclimatization by experienced and licensed laboratory technicians at the Laboratory Animal Science Center at BUMC (BUMC LASC).
Ligature placement was performed under general anesthesia using ketamine (40 mg/kg) and xylazine (5 mg/kg) injections. […] Animals in group A received ligature only while animals in groups B, C, D, E, and F received P. gingivalis in addition to ligature placement.
P. gingivalis (strain A74376) was grown as previously described. Briefly, bacteria were cultured on agar plates containing trypticase soy agar supplemented with 0.5% (w/v) yeast extract, 5% defibrinated sheep red blood cells, […], and 1 μg/mL vitamin K. Plates were incubated for 3 days at 37° C. in jars anaerobically maintained through palladium catalyzed hydrogen/carbon dioxide envelopes (GasPak Plus, BD Microbiology Systems, Sparks, Md.). Colonies were randomly selected and anaerobically cultured overnight at 37° C. in Schaedler's broth supplemented with vitamin K and hemin. Bacteria numbers were spectrophotometrically determined at 600 nm and 10^9 CFU (0.8 OD) were mixed with carboxymethylcellulose to form a thick slurry, which was applied topically to the ligated teeth. The sutures were checked at every appointment, and lost or loose sutures were replaced.
Topical application was performed in animals of Groups D, E, and F every other day for 6 weeks under inhalation anesthesia using isoflurane (4.0 MAC/2.0 MAC). In these groups, Cimetidine was applied at three different doses. Cimetidine preparations were delivered in liposomes (NOVASOME®) that served as a vehicle for the H2 receptor antagonist. In order to see if liposome application alone would have any effect on the outcome, animals in Group C received liposomes without Cimetidine (i.e., NOVASOME® alone) in addition to ligature placement and P. gingivalis.
For histological analysis, the other half of the mandible was immersed in a volume of immunocal (Decal Corporation, Tallman, N.Y.) equal to at least 10 times the size of the section; the solution was replaced every 24 hours for 72 hours. Decalcification was assessed and confirmed by serial radiographs, which were taken every other day during two weeks.
The tissue was kept in this solution for 2-3 minutes, rinsed again in flowing deionized water for at least 3 minutes and kept in formalin for at least 24 hours before embedding in paraffin. Thin sections (5 μm) were cut and sections were conventionally stained with hematoxylin and eosin (H&E) to identify the cellular composition of the inflammatory infiltrates, and one hundred seventy (170) 5 μm-sections were stained with tartrate-resistant acid phosphatase (TRAP) to detect osteoclastic activity.
The data obtained by direct measurements during morphologic assessment and by histomorphometric measurements was used in multiple statistical analyses.

Data set [6] concerns P. gingivalis and ligature-induced experimental periodontitis.

Read-outs that look alike come from different tables or passages of the source.

As for `C/N=C(\S)NCCSCc1[nH]cnc1C` [metiamide], in the data set with immunized normal cells, the “primary humoral antibody response” value is “markedly influence”.

`CN/C(=N/CCSCc1nc[nH]c1C)NC#N` [Cimetidine]: in the data set on neutrophils, the “superoxide (O2·-) and hydrogen peroxide (H2O2) production of neutrophils” value is given as “reduces”. Besides, in data set [1], the “CD4 (helper/inducer) lymphocytes” value was “corresponding increase” and the “CD8 (cytotoxic/suppressor) lymphocytes” value is on record as “decrease”. In addition, the “histamine-mediated increase in IL-α induced IL-6 synthesis” value in the data set on H2 receptor is “completely reverse”. Also, the “immunomodulating effect among H2 receptor antagonists (cimetidine, ranitidine, famotidine)” value in the data set with lymphocyte was “strongest immunomodulating effect”. Besides, the “primary humoral antibody response” value in the data set with immunized normal cells was “markedly influence”. Moreover, the “resolution of intra- and peri-oral warts” value in [2] is recorded as “complete resolution”. The “percentage of bone loss as calculated by Bjorn technique (FIG. 3 lower panel)” value in [3] is “prevents the destructive effects of P. gingivalis-induced periodontitis”. Also, the “clinical symptoms of disease” value in data set [4] is “significant improvement effect”. In data set [5], the “overall effect on tissue destruction and inflammatory cell infiltrate” value is “prevent bone loss, inflammatory cell infiltration, and connective tissue destruction”. Moreover, the “overall effect on tissue destruction and inflammatory cell infiltrate” value in data set [5] (listed as cimetidine) is reported as “inhibits P. gingivalis-elicited leukocyte migration toward the site of infection”. For the same molecule, in [5] (three doses), the “total, ligatured and ratio of ligatured/non-ligatured areas of the alveolar crest (FIG. 6B)” value was “no significant differences between the cimetidine groups”; the “linear distance from the epithelium to the alveolar crest border, ratio ligated/non-ligated sites (FIG. 6A)” value is recorded as “significantly increased (p<0.05) distances compared to the Cimetidine-treated groups”. In [5] (three doses, listed as cimetidine), the “linear distance from the epithelium to the alveolar crest border, ratio ligated/non-ligated sites (FIG. 6A)” value is “almost similar, insignificant (p>0.05) mean ratio values”. The “bone loss and inflammatory changes, H&E stained sections (FIG. 4)” value in data set [5] (topical 0.1, 1.0 and 10 μg/mL, Groups D, E, F) was “prevent both bone loss and inflammatory changes”. The “preventive effect on bone loss, quantitative analysis of defleshed bone specimens (FIG. 2)” value in [6] (all three doses vs liposome (NOVASOME) placebo, p<0.05, ANOVA) is listed as “statistically significant”. In addition, in data set [6] (topical, in NOVASOME liposomes, 0.1, 1.0 and 10 μg/mL, every other day for 6 weeks, Groups D, E, F), the “gingival inflammation and bone destruction (macroscopic, FIG. 1)” value is “prevented the gingival inflammation and bone destruction in a significant and comparable way with no apparent dose-dependent effect”.

Values taken from patent US20130108688A1, “Delivery of H2 Antagonists” (Trustees of Boston University, priority 2004, published 2013).
